Source: patent publication US20140039056A1, “BROMFENAC ORGANIC SALTS AND PREPARATION METHOD, COMPOSITION AND USE THEREOF” (SHENYANG XINGQI PHARMACEUTICAL CO., LTD., priority 2010, published 2014)
Where a name gives a salt, the structure may show the parent alone.

How the values were obtained:
[1] = Tissue distribution test (muscle tissue under skin after application to the back); conditions: rats; for time at which distribution in tissue reaches maximum values (peak concentrations): muscle tissue under skin; for concentration at 0 h / concentration at 2 h / concentration at 4 h / concentration at 6 h / concentration at 8 h / concentration at 10 h: rat, 1 g preparation, Concentration in muscle tissue, n = 3; for concentration at 0 h: 0 hours (before administration); for concentration at 2 h: 2 hours after administration of 1 g preparation on back skin; for concentration at 4 h: 4 hours after administration of 1 g preparation on back skin; for concentration at 6 h: 6 hours after administration of 1 g preparation on back skin; for concentration at 8 h: 8 hours after administration of 1 g preparation on back skin; for concentration at 10 h: 10 hours after administration of 1 g preparation on back skin
Experimental: Preparation of bromfenac salt solutions: 0.25 g samples of bromfenac sodium, bromfenac diethylamine salt as prepared in Example 1 and bromfenac trometamol salt as prepared in Example 2 were precisely weighed separately, placed in 25 ml volumetric flasks respectively, metered volume to obtain stock solutions for standby use.
Chromatography conditions: detector: ultraviolet absorption detector (wavelength: 266 nm). Chromatography column: octadecyl silica gel column (4.6 mm×150 mm, 5 μm). Mobile phase: precisely weighed ammonium acetate 3.85 g, added with water to the metered volume of 1000 mL. 700 mL of this solution was taken and added with 300 mL acetonitrile. Flow rate: 1.0 mL/min.
Plotting standard curves: 200 μl samples of blank tissue were taken, separately added with 50 μl of series standard solutions of bromfenac sodium, bromfenac diethylamine salt and bromfenac trometamol salt separately, added with 50 μl of internal standard respectively, to form sample solutions with equivalent tissue concentrations of bromfenac sodium, bromfenac diethylamine salt and bromfenac trometamol salt as 50, 100, 250, 500, 1000, 5000, 10000 ng/ml, which were separately weighed precisely to take 20 μl and injected into chromatography and separately assayed.
1) On the test day, removed short hair on the back of rats were with a electric hair clipper to expose surface layer of skin, while trying to avoid breaking skin during hair cutting, and then washed unhairing region with a large quantity of water;
2) anesthetized rats using 10% chloral hydrate in anesthetic agent dose of 3.5 ml/kg;
3) randomly divided the rats into 3 groups, 15 rats per group. On the unhairing region of back, the rats of 3 groups were separately administered with 1 g of bromfenac sodium, bromfenac diethylamine and Bromfenac trometamol preparations, and the administration regions were covered with freshness-keeping plastic film;
4) executed rats before administration (0 hours) and at 2 hours, 4 hours, 6 hours, 8 hours, 10 hours after administration, took muscle tissues under skin of administration sites;
5) simply washed muscle tissues with physiological saline, then absorbed excessive water with filter paper;
6) precisely weighed 1 g of muscle tissue, cut into pieces, homogenizing with 3 ml of physiological saline in electric grinding mill. A homogeneous muscle tissue homogenate was obtained after muscle tissue was ground completely;
7) took […] of tissue sample, added with 50 μL of an internal standard solution, mixed homogeneously, added with 1 mL of methanol, mixed by vortex for 1 min, centrifuged for 5 min (3500 rpm), separated and placed upper layer organic phase into another tube, blow-dried with 37° C. air, dissolved the residue by adding 100 μL of mobile phase, mixed by vortex, and took 20 μL to perform HPLC analysis.

[2] = test system: swelling of auricle caused by xylene in mice; assay: Test of effects on swelling of auricle caused by xylene in mice; format: in vivo; conditions: for effect on swelling of auricle caused by xylene in mice: in words; for Swelling degree: weight difference between two ears, lavage 50 mL/Kg of 1 g/100 ml solution twice per day for 7 days, mice
Experimental: Test grouping: 40 mice, bodyweight 20±2 g, randomly divided into 4 groups, 10 mice per group, i.e., physiological control group, bromfenac sodium group, bromfenac diethylamine salt group, and bromfenac trometamol salt group.
Test method: the mice of each test group were administered with physiological saline, solution of bromfenac sodium, solution of bromfenac diethylamine salt and solution of bromfenac trometamol salt, twice per day via lavage in lavage dose of 50 mL/Kg, for consecutive 7 days, 1 h after the last administration, xylene in dose of 0.05 mL/mouse was coated on right ears of mice of each test group, while their left ears were used as control, the mice were executed after 30 min, ear parts that were at the same place and had the same area were cut from both ears by a puncher with a diameter of 6 mm, and weighed with ten thousandth electronic analytical balance, and the weight difference between two ears was used as index of swelling.

[3] = test system: swelling of foot caused by egg white in rats; assay: Test of effects on swelling of foot caused by egg white in rats; format: in vivo; conditions: for effect on voix pedis swelling caused by egg white in rats: within 0.5 hours to 6 hours, versus physiological saline control group, in words
Experimental: Test grouping: 40 rats, bodyweight 200-220 g, randomly divided into 4 groups, 10 rats per group, i.e., physiological saline control group, bromfenac sodium group, bromfenac diethylamine salt group, and bromfenac trometamol salt group.
The rats of each test group were administered with physiological saline, solution of bromfenac sodium, solution of bromfenac diethylamine salt and solution of bromfenac trometamol salt, twice per day via lavage in lavage dose of 50 mL/Kg, for consecutive 7 days, before the last administration, volumes of voix pedis of normal right and left hindfeet of each rat were measured, and the measurement was performed by blood capillary volume method. The linedrawing position at ankle joint of rat was adjusted so that the volumes of voix pedis of right and left hindfeet were about 1 mL, 0.5 hours after the last administration, 0.1 mL of newly prepared 10% egg white liquid was subcutaneously injected to voix pedis of right and left hindfeet of rats respectively, and the volumes of voix pedis of right and left hindfeet of rats were measured again at 0.5, 1, 2, 4, 6 hours after injection of egg white, and swelling rate was calculated (voix pedis swelling rate=voix pedis volume at different time after injection of egg white−voix pedis volume at the same side before injection of egg white/voix pedis volume at the same side before injection of egg white), and the results were shown in Table 5.

[4] = Chemical stability in solid state (accelerated stability test at 60° C.); format: physicochemical; conditions: for change of content in accelerated test at 60° C.: solid state, in words
Experimental: HPLC Analysis Conditions:
Detector: ultraviolet absorption detector (wavelength: 266 nm).
Chromatography column: octadecyl silica gel column (4.0 mm×150 mm, 5 um).
Mobile phase: 3.85 g of ammonium acetate was precisely weighed, added with water to reach the metered volume of 1000 mL.

[5] = Chemical stability in aqueous state (25° C., dark); format: physicochemical; conditions: for degradation products and content changes in aqueous solution: dark conditions, in words
[6] = muscle tissue under skin of administration site, topical
[7] = 0.5 hours after injection of egg white
[8] = 0.5 hours after injection of egg white, lavage 50 mL/Kg twice per day for 7 days
[9] = 1.0 hours after injection of egg white
[10] = 2.0 hours after injection of egg white
[11] = 4.0 hours after injection of egg white
[12] = 6.0 hours after injection of egg white
[13] = Normal rats (before egg white), lavage 50 mL/Kg twice per day for 7 days

Row | SMILES | time at which distribution in tissue reaches maximum values (peak concentrations) [1] [h] | effect on swelling of auricle caused by xylene in mice [2] | Swelling degree [2] [mg] | voix pedis swelling rate [3, 7] | voix pedis volume [3, 8] [mL] | voix pedis swelling rate [3, 9] | voix pedis volume [3, 9] [mL] | voix pedis swelling rate [3, 10] | voix pedis volume [3, 10] [mL] | voix pedis swelling rate [3, 11] | voix pedis volume [3, 11] [mL] | voix pedis swelling rate [3, 12] | voix pedis volume [3, 12] [mL] | voix pedis swelling rate ([3]; Normal rats) | voix pedis volume [3, 13] [mL] | effect on voix pedis swelling caused by egg white in rats [3] | content (HPLC), solid state ([4]; 60° C., 2 weeks) [%] | content (HPLC), solid state ([4]; 60° C., 3 weeks) [%] | change of content in accelerated test at 60° C. [4] | content (HPLC), aqueous state ([5]; 25° C., dark, 2 weeks) [%] | also measured
1 | Nc1c(CC(=O)O)cccc1C(=O)c1ccc(Br)cc1 [Bromfenac trometamol salt, bromfenac trometamol salt] | 2 | significant inhibition effects | 5.41 ± 0.47 | (0.63 ± 0.09) | 1.59 ± 0.09 | (0.57 ± 0.10) | 1.54 ± 0.11 | (0.44 ± 0.13) | 1.41 ± 0.13 | (0.20 ± 0.10) | 1.24 ± 0.10 | (0.10 ± 0.07) | 1.08 ± 0.08 | (0.63 ± 0.09) | 1.59 ± 0.09 | significantly inhibit | 99.4 | 99.2 | no significant substantial change | 99.3 | concentration distributed in tissue compared with bromfenac sodium ([1]; muscle tissue): significantly greater; concentration at 0 h [1, 6]: 0 ng/mL; concentration at 2 h [1, 6]: 852 ng/mL; concentration at 4 h [1, 6]: 1490 ng/mL; concentration at 6 h [1, 6]: 1100 ng/mL; concentration at 8 h [1, 6]: 790 ng/mL; concentration at 10 h [1, 6]: 201 ng/mL; content (HPLC), aqueous state ([5]; 25° C., dark, 3 weeks): 99.1%; degradation products and content changes in aqueous solution [5]: not observed
2 | Nc1c(CC(=O)[O-])cccc1C(=O)c1ccc(Br)cc1.[Na+] [Bromfenac sodium, 2-amino-3-(4-bromobenzoyl)phenylacetic acid sodium salt sesquialter hydrate, reference compound] | 2 | significant inhibition effects | 5.45 ± 0.36 | (0.58 ± 0.06) | 1.56 ± 0.11 | (0.53 ± 0.07) | 1.51 ± 0.10 | (0.40 ± 0.09) | 1.39 ± 0.11 | (0.22 ± 0.08) | 1.20 ± 0.10 | (0.06 ± 0.05) | 1.04 ± 0.06 | (0.58 ± 0.06) | 1.51 ± 0.11 | significantly inhibit | 99.3 | 99.1 | no significant substantial change | 99.4 | concentration at 0 h ([1]; in vivo): 0 ng/mL; concentration at 2 h ([1]; in vivo): 238 ng/mL; concentration at 4 h ([1]; in vivo): 693 ng/mL; concentration at 6 h ([1]; in vivo): 509 ng/mL; concentration at 8 h ([1]; in vivo): 313 ng/mL; concentration at 10 h ([1]; in vivo): 130 ng/mL; content (HPLC), solid state ([4]; 60° C., 1 week): 99.5%; content (HPLC), solid state ([4]; Initial): 99.6%; content (HPLC), aqueous state ([5]; 25° C., dark, 1 week): 99.5%; content (HPLC), aqueous state ([5]; 25° C., dark, 3 weeks): 99.1%; content (HPLC), aqueous state ([5]; Initial): 99.6%; degradation products and content changes in aqueous solution [5]: not observed
